Measured values from patent US20030171340A1 (priority 2002, published 2003).

Key:
[1] = tested on: New Ps isolate from sediment; assay: Growth of new Ps isolate from sediment in the presence of tetracycline or tetracycline-Fe2+ complex; assay type: cell-based, Pseudomonas; details: experiment C
Method: (§1) Individual components were tested for inhibition or enhancement of Pseudomonas isolated from the site.

[2] = tested on: Pseudomonas isolate (Ps isolate, Susquehanna flats); assay: Growth of Pseudomonas isolate in TSB in the presence of tetracycline, metal cations or tetracycline metal complexes; assay type: cell-based; details: for Ps isolate growth (S/I/+4): experiment D
Method: as §1

Compound: CN(C)[C@@H]1C(O)=C(C(N)=O)C(=O)[C@@]2(O)C(O)=C3C(=O)c4c(O)cccc4[C@@](C)(O)[C@H]3C[C@@H]12 [tetracycline]
- Ps isolate growth (R/I/S) ([1]; 8 μg/mL): R
- Ps isolate growth (R/I/S) ([1]; 40 μg/mL): R
- Ps isolate growth (R/I/S) ([1]; 100 μg/mL): R

Compound: copper acetate [Cu^2+]
- Ps isolate growth ([2]; experiment A, metal cation alone, 1 mL TSB + 4 μl (4 μg/mL)): Growth
- Ps isolate growth (S/I/+4) ([2]; 1 μg/mL): +4
- Ps isolate growth (S/I/+4) ([2]; 4 μg/mL): I
- Ps isolate growth (S/I/+4) ([2]; 8 μg/mL): S (no growth)
- Ps isolate growth (S/I/+4) ([2]; metal cation alone, concentration not given): +4
